{"source": "patent US20230101803A1", "about": "“3CLPRO-TARGETING PHILLYRIN, DERIVATIVE THEREOF, AND USE THEREOF AGAINST NOVEL CORONAVIRUS” (DALIAN FUSHENG NATURAL MEDICINE DEVELOPMENT CO., LTD., priority 2020, published 2023)", "key": {"HCoV-229E": {"tested_on": "HCoV-229E", "assay": "CPE inhibition of HCoV-229E in vitro (process of first embodiment)", "format": "cell-based"}, "[1]": {"target": "SARS-CoV-2 3CL pro protein (Severe acute respiratory syndrome coronavirus 2, UniProt P0DTD1)", "format": "binding", "conditions": "3CL pro protein peak at 278 nm; protein 10^−5 M, compound 10^−4 M"}, "IFN-γ": {"tested_on": "IFN-γ", "assay": "IFN-γ mRNA expression in lung homogenate of infected mice (RT-qPCR)", "format": "in vivo, ACE2 transgenic C57BL/6 mice", "conditions": "positive control 50 mg/kg, fifth day after infection", "source_text": "(§1) Mice: hACE2 mice, 6-7 weeks old, 20-40 g, 120 males in total, laboratory animal supplier: Jiangsu Gempharmatech Co., Ltd.; laboratory animal production license: SOCK (Su) 2018-0008; laboratory animal certificate No.: No.320727201100243581; diets supplier: Jiangsu Medicience Biopharmaceutical Co., Ltd.\n(§2) Except for administrating PBS to the mice in the normal group by nasal drip, the mice in other groups were infected with 10^5 PFU of SARS-CoV-2 virus by nasal drip. Two hours after infection, phillyrin was intragastrically administrated to the mice in the administrating groups, once a day, for 5 consecutive days. On the fifth day after infection, the animals were dissected to take lungs for tissue homogenization to test the viral titer. Total RNA was extracted from the supernatant of lung tissue homogenate by Trizol method, and the mRNA expression of related inflammatory factors was detected by RT-qPCR."}, "IL-1β": {"tested_on": "IL-1β", "assay": "IL-1β mRNA expression in lung homogenate of infected mice (RT-qPCR)", "format": "in vivo, ACE2 transgenic C57BL/6 mice", "conditions": "positive control 50 mg/kg, fifth day after infection", "source_text": "as §1, §2"}, "SARS-CoV-2 virus [2]": {"tested_on": "SARS-CoV-2 virus", "assay": "Death protection of hACE2 mice infected with novel coronavirus", "format": "in vivo, hACE2 transgenic C57BL/6 mice", "conditions": "positive control 50 mg/kg", "method": "Except for administrating PBS to the mice in the normal group by nasal drip, the mice in other groups were infected with 10^5 PFU of SARS-CoV-2 virus by nasal drip. […] Changes in body weight were recorded every day after infection, and 5-day mortality was calculated."}, "MCP-1": {"tested_on": "MCP-1", "assay": "MCP-1 mRNA expression in lung homogenate of infected mice (RT-qPCR)", "format": "in vivo, ACE2 transgenic C57BL/6 mice", "conditions": "positive control 50 mg/kg, fifth day after infection", "source_text": "as §1, §2"}, "SARS-CoV-2 virus [3]": {"tested_on": "SARS-CoV-2 virus", "assay": "Viral titer in lung tissues of novel coronavirus-infected mice", "format": "in vivo, ACE2 transgenic C57BL/6 mice", "conditions": "positive control 50 mg/kg, fifth day after infection", "source_text": "as §1, §2"}, "IFN-α": {"tested_on": "IFN-α", "assay": "IFN-α mRNA expression in lung homogenate of infected mice (RT-qPCR)", "format": "in vivo, ACE2 transgenic C57BL/6 mice", "conditions": "positive control 50 mg/kg, fifth day after infection", "source_text": "as §1, §2"}}, "note": "Like-named read-outs stand apart in the source and are kept apart here."}
{"compound": "phillyrin [KD-1]", "values": [{"measurement": "inhibitory effect (compared in the same study)", "setting": "HCoV-229E", "value": "worse"}, {"measurement": "change of UV-Vis absorbance of 3CL pro protein after compound was added", "setting": "[1]", "value": "the absorbance was increased and the peak shifted"}]}
{"compound": "CCC(CC)COC(=O)[C@H](C)N[P@](=O)(OC[C@H]1O[C@@](C#N)(c2ccc3c(N)ncnn23)[C@H](O)[C@@H]1O)Oc1ccccc1", "note": "[Remdesivir]", "values": [{"measurement": "IFN-γ mRNA expression in lung homogenate", "setting": "IFN-γ", "value": "173.79 ± 84.84"}, {"measurement": "IL-1β mRNA expression in lung homogenate", "setting": "IL-1β", "value": "7.41 ± 5.86"}, {"measurement": "Mean survival days", "setting": "SARS-CoV-2 virus [2]", "value": "4.86 ± 0.38", "unit": "days"}, {"measurement": "Survival rate (%)", "setting": "SARS-CoV-2 virus [2]", "value": 87.50, "unit": "%"}, {"measurement": "MCP-1 mRNA expression in lung homogenate", "setting": "MCP-1", "value": "7.31 ± 5.14"}, {"measurement": "Viral titer in lung (Log10)", "setting": "SARS-CoV-2 virus [3]", "value": "1.68 ± 0.45", "unit": "Log10"}, {"measurement": "IFN-α mRNA expression in lung homogenate", "setting": "IFN-α", "value": "69.99 ± 53.20"}]}
{"compound": "COc1cc([C@H]2OC[C@H]3[C@@H]2CO[C@H]3c2ccc(OC)c(OC)c2)ccc1O", "note": "[phillygenin]", "values": [{"measurement": "inhibitory effect (compared in the same study)", "setting": "HCoV-229E; HCoV-229E, compared with the composition", "value": "worse"}]}
